Laboratory results: ChEMBL document CHEMBL1201862, “PubChem BioAssay data set” (2004)
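A five-concentration, 48-hour dose response in 96-well plates underlies each endpoint, interpolated linearly between surrounding concentrations. At the GI50, growth is halved.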 Calls of active or inactive are those of the source. No stated cut-off is given here; in the data, active = GI50 up to about 1.1 µM and inactive = higher.

Key:
Experiment in all cases: inhibition of tumour cell growth, NCI panel, 48 h
[1] = test system: OVCAR-4
[2] = test system: NCI-H522
[3] = test system: COLO 205
[4] = test system: UO-31
[5] = test system: A498
[6] = test system: NCI-H226
[7] = test system: MOLT-4
[8] = test system: 786-0
[9] = test system: UACC-257
[10] = test system: MDA-N
[11] = test system: SN12C
[12] = test system: LOX IMVI
[13] = test system: NCI-H460
[14] = test system: SF-268
[15] = test system: U-251
[16] = test system: OVCAR-3
[17] = test system: SK-MEL-5
[18] = test system: SNB-75
[19] = test system: HOP-62

Measured: GI50

O=C1CCC(=O)N1n1c(Cc2ccc(Cl)cc2)n[nH]c1=O
inactive: [1] > 100 µM | [2] > 100 µM | [3] > 100 µM | [4] > 100 µM | [5] > 100 µM | [6] > 100 µM | [7] > 100 µM | [8] > 100 µM | [9] > 100 µM | [10] > 100 µM | [11] > 100 µM | [12] > 100 µM | [13] > 100 µM | [14] > 100 µM | [15] > 100 µM | [16] > 100 µM | [17] > 100 µM

CC(=O)C(N1CCCCC1)C(O)(C(F)(F)F)C(F)(F)F (centres undefined)
inactive: [1] > 100 µM | [2] 64 µM | [3] > 100 µM | [4] > 100 µM | [5] > 100 µM | [6] > 100 µM | [7] 24 µM | [8] > 100 µM | [9] > 100 µM | [10] > 100 µM | [18] 33.4 µM | [12] > 100 µM | [13] 89.1 µM | [15] 88.9 µM | [16] 42.4 µM | [17] 19.8 µM

CO/N=C(/C(=O)OC)c1ccccc1COc1ccccc1C(F)(F)F
inactive: [1] 7.21 µM | [2] 14.7 µM | [3] 25.4 µM | [4] 39.1 µM | [5] 39.7 µM | [6] 68.4 µM | [7] 15.1 µM | [19] 63.8 µM | [8] 43.6 µM | [9] 16 µM | [10] 28.1 µM | [11] 61.8 µM | [13] 32.4 µM | [14] 32.6 µM | [15] 31.6 µM | [16] 23.8 µM | [17] 6.22 µM

CC1(C)CC2=NOS3=C2C(=NO3)C1c1ccccn1 (centres undefined)
inactive: [1] > 100 µM | [2] 38.5 µM | [3] 31.2 µM | [4] 61.7 µM | [5] > 100 µM | [7] 34.3 µM | [19] > 100 µM | [8] 34.7 µM | [9] 28.9 µM | [10] 30.9 µM | [11] > 100 µM | [18] > 100 µM | [12] 36.1 µM | [13] 33.7 µM | [14] > 100 µM | [15] > 100 µM | [16] 31 µM | [17] 17.8 µM

CC(=O)Nc1ccc(Nc2cc(O)nc(O)n2)cc1
inactive: [1] > 100 µM | [3] > 100 µM | [4] > 100 µM | [5] > 100 µM | [6] > 100 µM | [7] 18.2 µM | [19] > 100 µM | [8] > 100 µM | [9] > 100 µM | [10] > 100 µM | [11] > 100 µM | [18] > 100 µM | [12] > 100 µM | [13] > 100 µM | [14] > 100 µM | [15] > 100 µM | [16] > 100 µM | [17] > 100 µM

CC1=CCC[C@@](C)(O)[C@@H]2C[C@H]3C(CSc4ccccc4)C(=O)O[C@H]3[C@@H](O2)[C@H](C)CCC1 (some centres undefined)
inactive: [1] 19.8 µM | [2] 10.7 µM | [3] 18.1 µM | [4] 11.8 µM | [5] 18 µM | [7] 7.13 µM | [19] 16.6 µM | [8] 20.3 µM | [9] 18.6 µM | [10] 24.5 µM | [11] 38.2 µM | [18] 13.6 µM | [12] 15.9 µM | [13] 6.1 µM | [14] 34 µM | [15] 21.2 µM | [16] 13 µM | [17] 14.5 µM
